The results in this text go back to patent US8969325B2, “TRPV1 antagonists” (AbbVie Inc., priority 2011, dated 2015).

The target in assay [1] is T1, human TRPV1 (Homo sapiens (Human), UniProt Q8NER1). In words: Capsaicin Activation Assay (intracellular Ca2+, FLIPR). It is filed as cell-based. The following applies: recombinant HEK293 cells expressing hTRPV1, 50 nM capsaicin. An outline of the steps: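 Ca2+ fluorescence was recorded by FLIPR every 1 to 5 seconds in HEK293 cells, clonally selected for stable human TRPV1 expression and plated one day ahead. Test compounds came as serial dilutions of 10 mM DMSO stocks.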

Assay [2] has as its target T1, human TRPV1. Kind of assay: Acid Activation Assay (pH 5.0, intracellular Ca2+, FLIPR). It is filed as cell-based. Particulars: percentage of the maximal pH 5.0-induced response remaining; recombinant HEK293 hTRPV1 cells; maximum concentration tested 37.5 μM. Summed up: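 Readout: peak [Ca2+]i fluorescence over baseline on FLIPR, expressed as percentage remaining of the maximal pH 5.0-evoked signal. Stable hTRPV1-HEK293 cells with Calcium-4 dye received compound (12 half-log concentrations, maximum 37.5 μM) 3 min before acidic pH 5.0 buffer.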

T1 sequence (Q8NER1 whole entry): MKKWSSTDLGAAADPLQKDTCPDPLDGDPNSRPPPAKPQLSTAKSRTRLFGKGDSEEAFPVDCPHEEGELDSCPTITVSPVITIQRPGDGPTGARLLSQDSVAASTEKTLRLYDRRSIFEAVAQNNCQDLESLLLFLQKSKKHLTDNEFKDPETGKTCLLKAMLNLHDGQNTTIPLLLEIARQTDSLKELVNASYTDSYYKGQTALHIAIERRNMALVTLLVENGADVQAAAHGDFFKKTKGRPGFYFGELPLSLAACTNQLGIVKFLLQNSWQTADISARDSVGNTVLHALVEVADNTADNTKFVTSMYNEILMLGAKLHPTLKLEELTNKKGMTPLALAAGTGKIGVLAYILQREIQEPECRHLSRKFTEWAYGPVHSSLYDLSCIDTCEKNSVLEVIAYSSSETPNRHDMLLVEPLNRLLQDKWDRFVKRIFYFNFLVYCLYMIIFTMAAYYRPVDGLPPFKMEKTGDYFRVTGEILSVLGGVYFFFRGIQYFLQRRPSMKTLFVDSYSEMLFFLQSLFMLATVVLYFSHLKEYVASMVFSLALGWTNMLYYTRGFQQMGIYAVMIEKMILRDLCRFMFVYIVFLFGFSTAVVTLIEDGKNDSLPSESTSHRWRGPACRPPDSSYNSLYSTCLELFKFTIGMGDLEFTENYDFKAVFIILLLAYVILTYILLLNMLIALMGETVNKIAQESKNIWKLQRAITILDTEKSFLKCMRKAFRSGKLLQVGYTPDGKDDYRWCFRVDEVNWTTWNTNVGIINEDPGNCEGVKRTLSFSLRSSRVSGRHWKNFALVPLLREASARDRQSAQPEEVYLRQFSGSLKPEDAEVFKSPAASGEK

One may read the IC50 as the concentration needed to halve the response being measured. Turning to `CN1C(=O)CCc2ccc(NC(=O)N[C@@H]3CC(C)(C)Oc4c3ccc(Cl)c4F)cc21` [Example 294, 1-[(4R)-7-chloro-8-fluoro-2,2-dimethyl-3,4-dihydro-2H-chromen-4-yl]-3-(1-methyl-2-oxo-1,2,3,4-tetrahydroquinolin-7-yl)urea], the IC50 at human TRPV1 [1] is 120 nM. Further, at human TRPV1 [2], the “human TRPV1 H^+ (max % remain)” value is recorded as 71%.

`O=C(Nc1ccc2c(c1)NC(=O)N(CCO)C2)N[C@@H]1CC(CF)(CF)Oc2ccccc21` [Example 314, 1-[(4R)-2,2-bis(fluoromethyl)-3,4-dihydro-2H-chromen-4-yl]-3-[3-(2-hydroxyethyl)-2-oxo-1,2,3,4-tetrahydroquinazolin-7-yl]urea]: on human TRPV1 [1], the concentration for half-maximal inhibition (IC50) worked out at 57 nM. For the same compound, the “human TRPV1 H^+ (max % remain)” value at human TRPV1 [2] is reported as 0%.

Consider `CN1Cc2ccc(NC(=O)N[C@@H]3CCOc4c3cccc4C(F)(F)F)cc2NC1=O` [Example 200, 1-(3-methyl-2-oxo-1,2,3,4-tetrahydroquinazolin-7-yl)-3-[(4R)-8-(trifluoromethyl)-3,4-dihydro-2H-chromen-4-yl]urea], for which the IC50 on human TRPV1 [1] was determined as 90 nM. The “human TRPV1 H^+ (max % remain)” value on human TRPV1 [2] amounted to 21%.

Take `Cn1c(=O)ccc2c(NC(=O)N[C@@H]3CC4(CCC4)Oc4ccc(F)cc43)cccc21` [Example 73, 1-[(4R)-6-fluoro-3,4-dihydrospiro[chromene-2,1′-cyclobutan]-4-yl]-3-(1-methyl-2-oxo-1,2-dihydroquinolin-5-yl)urea]: the IC50 at human TRPV1 [1] was found to be 19 nM. The “human TRPV1 H^+ (max % remain)” value at human TRPV1 [2] is 32%.

With `CCC1(CC)C[C@@H](NC(=O)Nc2ccc3c(c2)N(C)C(=O)CC3)c2ccccc2O1` [Example 260, 1-[(4R)-2,2-diethyl-3,4-dihydro-2H-chromen-4-yl]-3-(1-methyl-2-oxo-1,2,3,4-tetrahydroquinolin-7-yl)urea], the IC50 on human TRPV1 [1] came out at 130 nM. Also, the “human TRPV1 H^+ (max % remain)” value at human TRPV1 [2] is given as 61%.

On to `CN1Cc2ccc(NC(=O)N[C@@H]3CC(C)(C)Oc4cc(F)ccc43)cc2NC1=O` [Example 176, 1-[(4R)-7-fluoro-2,2-dimethyl-3,4-dihydro-2H-chromen-4-yl]-3-(3-methyl-2-oxo-1,2,3,4-tetrahydroquinazolin-7-yl)urea], for which the IC50 on human TRPV1 [1] worked out at 120 nM. On human TRPV1 [2], the “human TRPV1 H^+ (max % remain)” value was 50%.

With `C[C@@]1(C(F)F)C[C@@H](NC(=O)Nc2ccc3c(c2)NC(=O)CC3)c2ccc(Cl)cc2O1` [Example 212, 1-[(2S,4R)-7-chloro-2-(difluoromethyl)-2-methyl-3,4-dihydro-2H-chromen-4-yl]-3-(2-oxo-1,2,3,4-tetrahydroquinolin-7-yl)urea], at human TRPV1 [1], the IC50 turned out to be 61 nM. In addition, the “human TRPV1 H^+ (max % remain)” value on human TRPV1 [2] came out at 34%.

Turning to `CN1C(=O)CCc2ccc(NC(=O)N[C@H]3CCOc4cc(OC(F)(F)F)ccc43)cc21` [Example 276, 1-(1-methyl-2-oxo-1,2,3,4-tetrahydroquinolin-7-yl)-3-[(4S)-7-(trifluoromethoxy)-3,4-dihydro-2H-chromen-4-yl]urea], the IC50 on human TRPV1 [1] was 44 nM. Further, the “human TRPV1 H^+ (max % remain)” value at human TRPV1 [2] is 77%.

Consider `CN1Cc2c(NC(=O)N[C@@H]3CC(CF)(CF)Oc4cc(Cl)ccc43)cccc2N(C)C1=O` [Example 167, 1-[(4R)-7-chloro-2,2-bis(fluoromethyl)-3,4-dihydro-2H-chromen-4-yl]-3-(1,3-dimethyl-2-oxo-1,2,3,4-tetrahydroquinazolin-5-yl)urea], for which, at human TRPV1 [1], the IC50 is 5 nM. On human TRPV1 [2], the “human TRPV1 H^+ (max % remain)” value came to 5%.

For `CN1C(=O)NCc2c(NC(=O)N[C@@H]3C[C@@](C)(C(F)F)Oc4cc(Cl)ccc43)cccc21` [Example 11, 1-[(2S,4R)-7-chloro-2-(difluoromethyl)-2-methyl-3,4-dihydro-2H-chromen-4-yl]-3-(1-methyl-2-oxo-1,2,3,4-tetrahydroquinazolin-5-yl)urea], the IC50 on human TRPV1 [1] worked out at 21 nM. The “human TRPV1 H^+ (max % remain)” value at human TRPV1 [2] is recorded as 32%.

For `CN1C(=O)NCc2c(NC(=O)N[C@@H]3CCOc4ccccc43)cccc21` [Example 168, 1-[(4R)-3,4-dihydro-2H-chromen-4-yl]-3-(1-methyl-2-oxo-1,2,3,4-tetrahydroquinazolin-5-yl)urea], the IC50 at human TRPV1 [1] was found to be 1200 nM. At human TRPV1 [2], the “human TRPV1 H^+ (max % remain)” value is on record as 28%.

With `CC1(C)C[C@@H](NC(=O)Nc2ccc3c(c2)NC(=O)CC3)c2cc(F)ccc2O1` [Example 232, 1-[(4R)-6-fluoro-2,2-dimethyl-3,4-dihydro-2H-chromen-4-yl]-3-(2-oxo-1,2,3,4-tetrahydroquinolin-7-yl)urea], the IC50 on human TRPV1 [1] amounted to 140 nM. Further, the “human TRPV1 H^+ (max % remain)” value on human TRPV1 [2] is recorded as 32%.

On to `C[C@]1(CF)C[C@@H](NC(=O)Nc2ccc3c(c2)NC(=O)CO3)c2ccc(C(F)(F)F)cc2O1` [Example 128, 1-[(2R,4R)-2-(fluoromethyl)-2-methyl-7-(trifluoromethyl)-3,4-dihydro-2H-chromen-4-yl]-3-(3-oxo-3,4-dihydro-2H-1,4-benzoxazin-6-yl)urea], for which the IC50 at human TRPV1 [1] was 34 nM. Further, on human TRPV1 [2], the “human TRPV1 H^+ (max % remain)” value is 99%.

`Cn1c(=O)ccc2c(NC(=O)N[C@@H]3CCOc4c3cccc4C(F)(F)F)cccc21` [Example 97, 1-(1-methyl-2-oxo-1,2-dihydroquinolin-5-yl)-3-[(4R)-8-(trifluoromethyl)-3,4-dihydro-2H-chromen-4-yl]urea]: on human TRPV1 [1], the IC50 turned out to be 17 nM. Besides, at human TRPV1 [2], the “human TRPV1 H^+ (max % remain)” value is recorded as 26%.

For the compound `CN1Cc2ccc(NC(=O)N[C@@H]3C[C@@](C)(C(F)F)Oc4ccccc43)cc2NC1=O` [Example 171, 1-[(2S,4R)-2-(difluoromethyl)-2-methyl-3,4-dihydro-2H-chromen-4-yl]-3-(3-methyl-2-oxo-1,2,3,4-tetrahydroquinazolin-7-yl)urea], the IC50 at human TRPV1 [1] came out at 1300 nM. For the same compound, the “human TRPV1 H^+ (max % remain)” value at human TRPV1 [2] is 63%.

Regarding “1-[(4R)-7-chloro-2,2-diethyl-3,4-dihydro-2H-chromen-4-yl]-3-(1-methyl-2-oxo-1,2,3,4-tetrahydroquinazolin-5-yl)urea [Example 145]”, on human TRPV1 [1], the IC50 came to 160 nM. Further, the “human TRPV1 H^+ (max % remain)” value on human TRPV1 [2] amounted to 7%.

Take `CN1Cc2ccc(NC(=O)N[C@@H]3CC(C)(C)Oc4c3cccc4C(F)(F)F)cc2NC1=O` [Example 16, 1-[(4R)-2,2-dimethyl-8-(trifluoromethyl)-3,4-dihydro-2H-chromen-4-yl]-3-(3-methyl-2-oxo-1,2,3,4-tetrahydroquinazolin-7-yl)urea]: the IC50 on human TRPV1 [1] stood at 100 nM. The “human TRPV1 H^+ (max % remain)” value at human TRPV1 [2] stood at 53%.

Take `CCC1(CC)C[C@@H](NC(=O)Nc2ccc3c(c2)NC(=O)N(C)C3)c2cccc(F)c2O1` [Example 177, 1-[(4R)-2,2-diethyl-8-fluoro-3,4-dihydro-2H-chromen-4-yl]-3-(3-methyl-2-oxo-1,2,3,4-tetrahydroquinazolin-7-yl)urea]: the IC50 at human TRPV1 [1] came to 91 nM. Further, the “human TRPV1 H^+ (max % remain)” value on human TRPV1 [2] was found to be 59%.

Regarding `CN1Cc2ccc(NC(=O)N[C@@H]3CC(CF)(CF)Oc4ccc(F)cc43)cc2NC1=O` [Example 186, 1-[(4R)-6-fluoro-2,2-bis(fluoromethyl)-3,4-dihydro-2H-chromen-4-yl]-3-(3-methyl-2-oxo-1,2,3,4-tetrahydroquinazolin-7-yl)urea], the half-maximal inhibitory concentration (IC50) on human TRPV1 [1] was determined as 1500 nM. Besides, on human TRPV1 [2], the “human TRPV1 H^+ (max % remain)” value came out at 58%.

As for `CN1C(=O)CCc2ccc(NC(=O)N[C@@H]3CC(CF)(CF)Oc4c3ccc(Cl)c4F)cc21` [Example 273, 1-[(4R)-7-chloro-8-fluoro-2,2-bis(fluoromethyl)-3,4-dihydro-2H-chromen-4-yl]-3-(1-methyl-2-oxo-1,2,3,4-tetrahydroquinolin-7-yl)urea], on human TRPV1 [1], the IC50 came to 210 nM. Also, on human TRPV1 [2], the “human TRPV1 H^+ (max % remain)” value amounted to 55%.

As to `O=C1CCc2ccc(NC(=O)N[C@H]3CC(CF)(CF)Oc4cc(Cl)ccc43)cc2N1` [Example 217, 1-[(4S)-7-chloro-2,2-bis(fluoromethyl)-3,4-dihydro-2H-chromen-4-yl]-3-(2-oxo-1,2,3,4-tetrahydroquinolin-7-yl)urea], the IC50 at human TRPV1 [1] is 430 nM. Moreover, at human TRPV1 [2], the “human TRPV1 H^+ (max % remain)” value is recorded as 50%.

As for `CN1C(=O)CCc2ccc(NC(=O)N[C@@H]3C[C@@](C)(CF)Oc4cc(Cl)ccc43)cc21` [Example 291, 1-[(2S,4R)-7-chloro-2-(fluoromethyl)-2-methyl-3,4-dihydro-2H-chromen-4-yl]-3-(1-methyl-2-oxo-1,2,3,4-tetrahydroquinolin-7-yl)urea], the IC50 on human TRPV1 [1] came out at 26 nM. For the same compound, the “human TRPV1 H^+ (max % remain)” value on human TRPV1 [2] turned out to be 71%.

As to `C[C@@]1(CF)C[C@@H](NC(=O)Nc2ccc3c(c2)NC(=O)N(CCO)C3)c2ccc(C(F)(F)F)cc2O1` [Example 58, 1-[(2S,4R)-2-(fluoromethyl)-2-methyl-7-(trifluoromethyl)-3,4-dihydro-2H-chromen-4-yl]-3-[3-(2-hydroxyethyl)-2-oxo-1,2,3,4-tetrahydroquinazolin-7-yl]urea], at human TRPV1 [1], the IC50 stood at 63 nM. For the same compound, at human TRPV1 [2], the “human TRPV1 H^+ (max % remain)” value is listed as 2%.

Consider `CCC1(CC)C[C@@H](NC(=O)Nc2ccc3c(c2)NC(=O)N(CCO)C3)c2cc(F)ccc2O1` [Example 50, 1-[(4R)-2,2-diethyl-6-fluoro-3,4-dihydro-2H-chromen-4-yl]-3-[3-(2-hydroxyethyl)-2-oxo-1,2,3,4-tetrahydroquinazolin-7-yl]urea], for which, on human TRPV1 [1], the IC50 was 45 nM. On human TRPV1 [2], the “human TRPV1 H^+ (max % remain)” value is reported as 0%.

For the compound `COCC1(COC)C[C@@H](NC(=O)Nc2ccc3c(c2)NC(=O)N(C)C3)c2cc(F)ccc2O1` [Example 196, 1-[(4R)-6-fluoro-2,2-bis(methoxymethyl)-3,4-dihydro-2H-chromen-4-yl]-3-(3-methyl-2-oxo-1,2,3,4-tetrahydroquinazolin-7-yl)urea], the IC50 at human TRPV1 [1] worked out at 2700 nM. Also, on human TRPV1 [2], the “human TRPV1 H^+ (max % remain)” value was 53%.
